Like-named read-outs stand apart in the source and are kept apart here.

This assay addresses PD-1/PD-L1 interaction (PD-1-Ig / PD-L1-His) (Homo sapiens (Human), UniProt Q9NZQ7). In words: PD-1/PD-L1 Homogenous Time-Resolved Fluorescence (HTRF) binding assay. Conditions: PD-1/PD-L1 HTRF binding assay, read-out: Range or IC50. In outline: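 Human PD-L1-His (10 nM final) was pre-incubated with inhibitor for 15 min, then PD-1-Ig (20 nM final) was added for a further 15 min in dPBS with 0.1% BSA and 0.05% Tween-20. Binding was detected by HTRF using Eu-cryptate anti-Ig (1 nM) and APC anti-His (20 nM).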
Background: Time-resolved FRET reads energy transfer from a long-lived donor to a nearby acceptor.

Sequence of PD-1/PD-L1 interaction (PD-1-Ig / PD-L1-His) (Q9NZQ7 other isoform, or with tags, fused parts or gaps): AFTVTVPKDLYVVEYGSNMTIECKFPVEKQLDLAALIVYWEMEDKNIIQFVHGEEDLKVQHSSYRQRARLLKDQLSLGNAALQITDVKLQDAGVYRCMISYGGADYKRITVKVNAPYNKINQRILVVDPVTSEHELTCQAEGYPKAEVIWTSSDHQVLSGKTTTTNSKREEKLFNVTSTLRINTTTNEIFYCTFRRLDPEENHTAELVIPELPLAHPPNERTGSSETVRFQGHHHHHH

Consider `COc1cc(COc2cc(OCc3cccc(-c4ccc5c(c4)OCCO5)c3C)c(Cl)cc2CN[C@@](C)(CO)C(=O)O)cc(Cl)n1` [Example 3014, (S)-2-((5-chloro-2-((2-chloro-6-methoxypyridin-4-yl)methoxy)-4-((3-(2,3-dihydrobenzo[b][1,4]dioxin-6-yl)-2-methylbenzyl)oxy)benzyl)amino)-3-hydroxy-2-methylpropanoic acid], for which, for the setting “value given as range class”, the IC50 (commonly the point on the concentration scale where inhibition reaches its midpoint) is 0.0006 to 0.01 µM.

With `COc1cc(COc2cc(OCc3cccc(-c4ccc5c(c4)OCCO5)c3C)c(Cl)cc2CN[C@@](C)(CO)C(=O)O)ccn1` [Example 3015, (2S)-2-{[(5-chloro-4-{[3-(2,3-dihydro-1,4-benzodioxin-6-yl)-2-methylphenyl]methoxy}-2-[(2-methoxypyridin-4-yl)methoxy]phenyl)methyl]amino}-3-hydroxy-2-methylpropanoic acid], where the note is “value given as range class”, the IC50 is 0.0006 to 0.01 µM.

Consider `COc1cc(COc2cc(OCc3cccc(-c4ccc5c(c4)OCCO5)c3C)c(Cl)cc2CO)ccn1` [Example 3016, (5-chloro-4-{[3-(2,3-dihydro-1,4-benzodioxin-6-yl)-2-methylphenyl]methoxy}-2-[(2-methoxypyridin-4-yl)methoxy]phenyl)methanol], for which, for the setting “value given as range class”, the IC50 was 0.1 to 20 µM.

`COc1cc(COc2cc(OCc3cccc(-c4ccc5c(c4)OCCO5)c3C)c(Cl)cc2CN2CCCC[C@H]2C(=O)O)ccn1` [Example 3017, (S)-1-(5-chloro-4-((3-(2,3-dihydrobenzo[b][1,4]dioxin-6-yl)-2-methylbenzyl)oxy)-2-((2-methoxypyridin-4-yl)methoxy)benzyl)piperidine-2-carboxylic acid]: under “value given as range class”, the 50% inhibitory concentration (IC50) was in the range of 0.01 to 0.1 µM.

Turning to `Cc1c(COc2cc(OCc3ccnc(C(=O)N(C)C)c3)c(CN[C@@](C)(CO)C(=O)O)cc2Cl)cccc1-c1ccc2c(c1)OCCO2` [Example 3018, (S)-2-((5-chloro-4-((3-(2,3-dihydrobenzo[b][1,4]dioxin-6-yl)-2-methylbenzyl)oxy)-2-((2-(dimethylcarbamoyl)pyridin-4-yl)methoxy)benzyl)amino)-3-hydroxy-2-methylpropanoic acid], the IC50 (value given as range class) lay within 0.0006 to 0.01 µM.

On to `Cc1c(COc2cc(OCc3ccnc(C(=O)N(C)C)c3)c(CO)cc2Cl)cccc1-c1ccc2c(c1)OCCO2` [Example 3019, 4-(4-chloro-5-{[3-(2,3-dihydro-1,4-benzodioxin-6-yl)-2-methylphenyl]methoxy}-2-(hydroxymethyl)phenoxymethyl)-N,N-dimethylpyridine-2-carboxamide], for which the IC50 (value given as range class) fell in the range of 0.1 to 20 µM.

With `Cc1c(COc2cc(OCc3cccc(S(C)(=O)=O)c3)c(C=O)cc2Cl)cccc1-c1ccc2c(c1)OCCO2` [Example 3020, 5-chloro-4-((3-(2,3-dihydrobenzo[b][1,4]dioxin-6-yl)-2-methylbenzyl)oxy)-2-((3-(methylsulfonyl)benzyl)oxy)benzaldehyde], the half-inhibitory concentration (IC50) (value given as range class) is 0.1 to 20 µM.

On to `Cc1c(COc2cc(OCc3cccc(S(C)(=O)=O)c3)c(CN[C@@](C)(CO)C(=O)O)cc2Cl)cccc1-c1ccc2c(c1)OCCO2` [Example 3021, (S)-2-((5-chloro-4-((3-(2,3-dihydrobenzo[b][1,4]dioxin-6-yl)-2-methylbenzyl)oxy)-2-((3-(methylsulfonyl)benzyl)oxy)benzyl)amino)-3-hydroxy-2-methylpropanoic acid], for which the IC50 (value given as range class) was 0.0006 to 0.01 µM.

In the case of `Cc1c(COc2cc(OCc3cncc(C#N)c3)c(CN[C@@H](CC(N)=O)C(=O)O)cc2Cl)cccc1-c1ccc2c(c1)OCCO2` [Example 3022, (S)-4-amino-2-((5-chloro-2-((5-cyanopyridin-3-yl)methoxy)-4-((3-(2,3-dihydrobenzo[b][1,4]dioxin-6-yl)-2-methylbenzyl)oxy)benzyl)amino)-4-oxobutanoic acid], the IC50 (value given as range class) was 0.0006 to 0.01 µM.

On to `Cc1c(COc2cc(OCc3cncc(C#N)c3)c(CN[C@@H](CC(=O)O)C(=O)O)cc2Cl)cccc1-c1ccc2c(c1)OCCO2` [Example 3023, (S)-2-((5-chloro-2-((5-cyanopyridin-3-yl)methoxy)-4-((3-(2,3-dihydrobenzo[b][1,4]dioxin-6-yl)-2-methylbenzyl)oxy)benzyl)amino)succinic acid], for which the IC50 (value given as range class) lay in the range of 0.0006 to 0.01 µM.

`Cc1c(COc2cc(OCc3cncc(C#N)c3)c(CN[C@H](CC(N)=O)C(=O)O)cc2Cl)cccc1-c1ccc2c(c1)OCCO2` [Example 3024, (R)-4-amino-2-((5-chloro-2-((5-cyanopyridin-3-yl)methoxy)-4-((3-(2,3-dihydrobenzo[b][1,4]dioxin-6-yl)-2-methylbenzyl)oxy)benzyl)amino)-4-oxobutanoic acid]: the IC50 (numeric value) is 0.00554 µM.

`Cc1c(COc2cc(OCc3cncc(C#N)c3)c(CN[C@H](CC(=O)O)C(=O)O)cc2Cl)cccc1-c1ccc2c(c1)OCCO2` [Example 3025, (R)-2-((5-chloro-2-((5-cyanopyridin-3-yl)methoxy)-4-((3-(2,3-dihydrobenzo[b][1,4]dioxin-6-yl)-2-methylbenzyl)oxy)benzyl)amino)succinic acid]: the IC50 (value given as range class) lay within 0.0006 to 0.01 µM.

Turning to `COC(=O)c1ccc(OC)c(COc2cc(OCc3cccc(-c4ccc5c(c4)OCCO5)c3C)c(Cl)cc2CN2CCCC[C@H]2C(=O)O)c1` [Example 3026, (S)-1-(5-chloro-4-((3-(2,3-dihydrobenzo[b][1,4]dioxin-6-yl)-2-methylbenzyl)oxy)-2-((2-methoxy-5-(methoxycarbonyl)benzyl)oxy)benzyl)piperidine-2-carboxylic acid], the IC50 (value given as range class) is 0.1 to 20 µM.

Turning to `COc1ccc(C(=O)O)cc1COc1cc(OCc2cccc(-c3ccc4c(c3)OCCO4)c2C)c(Cl)cc1CN1CCCC[C@H]1C(=O)O` [Example 3027, (S)-1-(2-((5-carboxy-2-methoxybenzyl)oxy)-5-chloro-4-((3-(2,3-dihydrobenzo[b][1,4]dioxin-6-yl)-2-methylbenzyl)oxy)benzyl)piperidine-2-carboxylic acid], under “value given as range class”, the IC50 lay in the range of 0.1 to 20 µM.

For the molecule `Cc1c(COc2cc(OCc3ccccc3)c(CN3CCCC[C@H]3C(=O)O)cc2Cl)cccc1-c1ccc2c(c1)OCCO2` [Example 3028, (S)-1-(2-(benzyloxy)-5-chloro-4-((3-(2,3-dihydrobenzo[b][1,4]dioxin-6-yl)-2-methylbenzyl)oxy)benzyl)piperidine-2-carboxylic acid], where the note is “value given as range class”, the IC50 is 0.1 to 20 µM.

In the case of `COc1ccccc1COc1cc(OCc2cccc(-c3ccc4c(c3)OCCO4)c2C)c(Cl)cc1CN1CCCC[C@H]1C(=O)O` [Example 3029, (S)-1-(5-chloro-4-((3-(2,3-dihydrobenzo[b][1,4]dioxin-6-yl)-2-methylbenzyl)oxy)-2-((2-methoxybenzyl)oxy)benzyl)piperidine-2-carboxylic acid], the IC50 (μM) came out at 2.35 µM.

Take `Cc1c(COc2cc(OCC(N)=O)c(CN[C@@H](CO)C(=O)O)cc2Cl)cccc1-c1ccc2c(c1)OCCO2` [Example 3030, (S)-2-((2-(2-amino-2-oxoethoxy)-5-chloro-4-((3-(2,3-dihydrobenzo[b][1,4]dioxin-6-yl)-2-methylbenzyl)oxy)benzyl)amino)-3-hydroxypropanoic acid]: where the note is “value given as range class”, the IC50 was in the range of 0.0006 to 0.01 µM.

The record behind these values is patent US9850225B2, “Compounds useful as immunomodulators” (BRISTOL-MYERS SQUIBB COMPANY, priority 2014, dated 2017).
